# Data published in paper PMC10144058, “New Hybrid Scaffolds Based on 5-FU/Curcumin: Synthesis, Cytotoxic, Antiproliferative and Pro-Apoptotic Effect” (Pharmaceutics, 2023).
# Where two headings read alike, the source gives them in different places.
# Columns and labels:
# SW620 cells [1] = assay: Mitochondrial membrane potential (DiOC6/PI, flow cytometry); format: cell-based, human; details: SW620, treated with IC50, 48 h
# Method: (§1) The fluorescent dyes PI and DIOC6 (3,3’-dihexyloxacarbocyanine iodide) were used to observe the depolarization of the mitochondrial membrane as well as possible cell membrane damage. For this method, 250,000 cells/well were initially seeded in 6-well culture plates during a 24 h adherence period at 37 °C in a 5% CO2 atmosphere. […] After treatment, cells were obtained by mechanical disaggregation, stained with DiOC6 and PI, and incubated at room temperature for 30 min in the dark. Ten thousand events were analyzed by flow cytometry with excitation at 488 nm and emission detection with green (530/15 nm) and red (610/20 nm) filters.
# SW480 cells [2] = assay: as above; format: cell-based, human; details: SW480, treated with IC50, 48 h
# Method: as §1
# CHO-K1 cells = assay: Cell viability, sulforhodamine B (SRB) assay, non-malignant cells; format: cell-based, Chinese Hamster; details: Cricetulus griseus
# Method: (§2) SW480 (colon adenocarcinoma) and SW620 (derived metastatic) malignant cell lines, and the non-malignant lines HaCaT (human keratinocytes) and CHO-K1 (Chinese Hamster Ovary), were obtained from the European Collection of Authenticated Cell Cultures (ECACC, Porton Down, Salisbury, UK). The cells were maintained in Dulbecco’s Modified Eagle’s Medium (DMEM), supplemented with 10% equine serum previously inactivated at 56 °C, 1% penicillin/streptomycin, and 1% non-essential amino acids, and incubated at 37 °C in an atmosphere with 5% CO2. To carry out the experiments, the serum was diluted to 3% and additionally supplemented with […] insulin, […] transferrin, and 5 ng/mL selenium. Cells were used for experimentation when they reached 80–90% confluence, using a 1X trypsin enzymatic disintegration method. To avoid contamination by Mycoplasma spp., cell cultures were periodically analyzed by polymerase chain reaction (PCR).
# (§3) Cell viability was evaluated with a sulforhodamine B (SRB) assay. This technique provides an index of protein contents in living and adherent cells, whose optical density can be related to cell concentration. Initially, 20,000 cells were seeded per well in 96-well culture plates. An initial adherence period of 24 h was performed at 37 °C, 5% CO2, and after this, the medium was replaced by another that contained the hybrid compounds in different concentrations. Then, the cells were left incubating for 24 and 48 h under the same conditions previously described. After the respective incubation times, the cells were fixed with trichloroacetic acid (50% v/v) for 1 h at 4 °C and stained with 0.4% (p/v) of SRB. Subsequently, washings with 1% acetic acid were carried out to eliminate possible nonspecific bindings, and after solubilization with 10 mM Tris-base, the absorbance was read at 492 nm in a microplate reader (Mindray MR-96A). All the experiments were carried out in triplicate.
# SW480 cells [3] = assay: Cell viability, sulforhodamine B (SRB) assay; format: cell-based; details: Homo sapiens
# Method: as §2, §3
# HaCaT cells = assay: Cell viability, sulforhodamine B (SRB) assay, non-malignant cells; format: cell-based; details: Homo sapiens
# Method: as §2, §3
# [4] = tested on: caspase 3, caspase 7, caspase 8 and p53 in SW480 cells; assay: Apoptotic biomarkers (ELISA); format: cell-based, human; details: SW480, treated with IC50, 48 h, vs control
# Method: (§4) To provide an approach to the possible molecular mechanisms through which the hybrid compounds induce an effect on the cell lines, different proteins related to the process of death by apoptosis were determined. For this method, 1,000,000 cells were initially seeded per Petri dish, with an adherence period of 24 h at 37 °C in a 5% CO2 atmosphere. […] Later, the consumed medium was discarded, and after the addition of the versene buffer, the cells were obtained by mechanical disaggregation. The cells were then lysed with a cell lysis buffer and centrifuged to obtain the supernatant, which was used to determine the biomarkers of interest by enzyme-linked immunosorbent assays. These ELISA kits were provided by Elabscience Biotechnology Co., Houston, TX, USA [26].
# [5] = tested on: caspase 3, caspase 7, caspase 8 and p53 in SW620 cells; assay: Apoptotic biomarkers (ELISA); format: cell-based, human; details: SW620, treated with IC50, 48 h, vs control
# Method: as §4
# SW620 cells [6] = assay: Cell viability, sulforhodamine B (SRB) assay; format: cell-based, human; details: Homo sapiens
# Method: as §2, §3
# SW620 cells [7] = assay: Antiproliferative activity (SRB, 0-8 days); format: cell-based, human; details: for viability at 1.25 µM / viability at 20 µM: Homo sapiens, read-out: Cell Viability (%) ± SE; for viability at 1.25 µM: SW620, 1.25 µM; for viability at 20 µM: SW620, 20 µM
# Method: (§5) For this experiment, the same colorimetric method (SRB) from the evaluation of cell viability was used, although with some modifications. Initially, 2500 cells per well were seeded in 96-well culture plates, and a 24 h adherence period was performed at 37 °C in a 5% CO2 atmosphere. […] For this assay, incubation periods of 0, 2, 4, 6, and 8 days were used, and the fixation, staining, and reading conditions were the same as those previously described for the cytotoxicity assay.
# SW480 cells [8] = assay: Cell death induction (Annexin-V/PI, flow cytometry); format: cell-based, human; details: SW480, treated with IC50, 48 h
# Method: For this method, 250,000 cells/well were initially seeded in 6-well culture plates during a 24 h adherence period at 37 °C in a 5% CO2 atmosphere. […] After treatment, cells were obtained by mechanical disaggregation, resuspended in a solution with Annexin-V-FLUOS and PI, and incubated for 20 min in the dark before flow cytometry analysis.
# SW480 cells [9] = assay: Antiproliferative activity (SRB, 0-8 days); format: cell-based; details: Homo sapiens, read-out: Cell Viability (%) ± SE; for viability at 0.625 µM: SW480, 0.625 µM; for viability at 10 µM: SW480, 10 µM
# Method: as §5
# [10] = SW-620, 48 h, 2 days after plating
# [11] = SW-620, 96 h, 4 days after plating
# [12] = SW-620, 144 h, 6 days after plating
# [13] = SW-620, 192 h, 8 days after plating
smiles,measurement,setting,value
"COc1cc(/C=C/C(=O)c2ccc(OCCCCCn3cc(Cn4cc(F)c(=O)[nH]c4=O)nn3)cc2)ccc1O [Compound 6d, (E)-5-fluoro-1-((1-(5-(4-(3-(4-hydroxy-3-methoxyphenyl)acryloyl)phenoxy)pentyl)-1H-1,2,3-triazol-4-yl)methyl)pyrimidine-2,4(1H,3H)-dione]",Dioc6 High population (live cells with high membrane polarization),SW620 cells [1],19.2%
same,Dioc6 Low population (cells that lose membrane polarization),SW620 cells [1],0.11%
same,PI+ population (membrane damage or dead cells),SW620 cells [1],76.1%
same,changes in the mitochondrial membrane potential,SW620 cells [1],do not induce significant changes
same,Dioc6 High population (live cells with high membrane polarization),SW480 cells [2],76.2%
same,Dioc6 Low population (cells that lose membrane polarization),SW480 cells [2],0%
same,PI+ population (membrane damage or dead cells),SW480 cells [2],23.7%
same,changes in the mitochondrial membrane potential,SW480 cells [2],do not induce significant changes
same,IC50,"CHO-K1 cells; CHO-K1, 24 h",12.4 ± 1.34 µM
same,IC50,"CHO-K1 cells; CHO-K1, 48 h",28.1 ± 1.95 µM
same,IC50,"SW480 cells [3]; SW480, 24 h",15.7 ± 1.91 µM
same,IC50,"SW480 cells [3]; SW480, 48 h",2.43 ± 0.33 µM
same,IC50,HaCaT cells; 24 h,42.6 ± 6.93 µM
same,IC50,HaCaT cells; 48 h,20.3 ± 2.66 µM
same,"levels of biomarkers (caspase 3, caspase 7, caspase 8, p53)",[4],no significant differences
same,"levels of biomarkers (caspase 3, caspase 7, caspase 8, p53)",[5],no significant differences
same,IC50,"SW620 cells [6]; SW-620, 24 h, 24 h",37.1 ± 3.05 µM
same,IC50,"SW620 cells [6]; SW-620, 48 h, 48 h",7.51 ± 1.47 µM
same,viability at 1.25 µM,SW620 cells [7]; [10],91 ± 2.85%
same,viability at 20 µM,SW620 cells [7]; [10],42.5 ± 4.57%
same,viability at 1.25 µM,SW620 cells [7]; [11],85.2 ± 3.23%
same,viability at 20 µM,SW620 cells [7]; [11],7.1 ± 0.95%
same,viability at 1.25 µM,SW620 cells [7]; [12],67.3 ± 2.32%
same,viability at 20 µM,SW620 cells [7]; [12],0%
same,viability at 1.25 µM,SW620 cells [7]; [13],54.4 ± 2.76%
same,viability at 20 µM,SW620 cells [7]; [13],0%
same,inhibition percentages (decrease in cell viability),"SW620 cells [7]; SW620, from 5 µM, day 2",higher than 30%
same,Annexin V/PI quadrant Q3 (early apoptotic cells),SW480 cells [8],50.2%
same,viability at 0.625 µM,"SW480 cells [9]; 48 h, 2 days after plating",90.1 ± 1.45%
same,viability at 10 µM,"SW480 cells [9]; 48 h, 2 days after plating",7.35 ± 1.45%
same,viability at 0.625 µM,"SW480 cells [9]; 96 h, 4 days after plating",55.5 ± 2.21%
same,viability at 10 µM,"SW480 cells [9]; 96 h, 4 days after plating",0.75 ± 0.2%
same,viability at 0.625 µM,"SW480 cells [9]; 144 h, 6 days after plating",46.36 ± 0.18%
same,viability at 10 µM,"SW480 cells [9]; 144 h, 6 days after plating",0.68 ± 0.14%
same,viability at 0.625 µM,"SW480 cells [9]; 192 h, 8 days after plating",32.3 ± 0.77%
same,viability at 10 µM,"SW480 cells [9]; 192 h, 8 days after plating",0%
